From paper PMC8491704, “Pharmacokinetic study of Tangwang Mingmu granule for the management of diabetic retinopathy based on network pharmacology” (Pharmaceutical Biology, 2021)
Like-named read-outs stand apart in the source and are kept apart here.

What was measured:
[1] = Pharmacokinetic study in SD rats after oral administration of TWMM (UPLC-QQQ-MS of plasma); format: in vivo, Sprague-Dawley (SD) rats; conditions: oral TWMM 9.6 g/kg
Experimental: Chromatographic separation was performed using an ACQUITY UPLC H-Class system equipped with a 1.8 μm HSS T3 analytical column (100 mm × 2.1 i.d., Waters Corporation, Milford, USA). […] ESI source was set to negative ionisation mode while the analysis was performed using multiple reaction monitorin. Ion spray voltage (3000 V), capillary temperature (450 °C), and the source parameters of the nine compounds are shown in Table 2.
The data obtained from the UPLC/Q-Orbitrap MS was imported into Xcalibur 4.0 software for analysis. Furthermore, the constituents acquired using GCMS-QP 2010 were profiled by comparison using the National Institute of Standards and Technology (NIST) database. The pharmacokinetic data were processed through MassLynx 4.1, and DAS 2.0 software was used to calculate the pharmacokinetic parameters according to the compartment model.
Six male SD rats (average weight: 220 ± 10 g) were acquired from Beijing Vital-River Laboratory Animal Technology Co., Ltd. All rats were acclimatized to an environmentally controlled laboratory for a week. Following this period, the rats were exposed to fasting conditions for 12 h but were allowed free access to water before the experiment. The rats were orally administered TWMM at a dose of 9.6 g/kg. Blood samples (300 µL) were collected into heparinized centrifuge tubes from the fossa orbitalis at pre-dose and 0.03, 0.08, 0.17, 0.25, 0.5, 1, 2, 4, 8, 12, 24, and 36 h intervals. The samples were immediately centrifuged at 6000 g for 10 min at 4 °C and the supernatants were transferred to clean centrifuge tubes.
Each 100 µL plasma sample was mixed with 20 µL of methanol, 20 µL of IS (5 µg/mL), and 600 µL acetonitrile. The mixtures were centrifuged at 15,000 g for 10 min at 4 °C after being vortexed for 3 min. The obtained supernatants were transferred to clean 1.5 mL centrifuge tubes, followed by evaporation under a milt nitrogen stream. Next, the obtained residues were individually redissolved in 100 µL of methanol and centrifuged at 15,000 g for 10 min at 4 °C after vortexed for 3 min. Lastly, 10 µL of individual supernatant was injected for analysis.

[2] = Stability of QC samples of 8 compounds in rat plasma (25 °C 4 h, autosampler 12 h, three freeze-thaw cycles, −80 °C 7 d); format: in vitro ADME
Experimental: The calibration curves were assessed at eight concentration levels using the correlation coefficient (r). The lower limit of quantification (LLOQ) could fulfil the analytical requirements and achieved reliable accuracy and precision with a signal-to-noise ratio (S/N) ≥ 10. To determine intra- and inter-day precision and accuracy, six replicate quality control (QC) samples at three concentrations were prepared. Inter- and intra-day precision was evaluated by determining relative standard deviation (RSD) values, while accuracy was expressed in terms of the relative error (RE). The extraction recoveries were determined using three concentration levels and calculated by comparing the peak area of extracted samples with post-extracted spiked samples. Subsequently, matrix effects were assessed using the peak area of post-extracted spiked samples contrasted with QC samples at the three concentration levels. The stability test of QC samples at the three concentration levels was as follows: storage at 25 °C for 4 h, storage in an autosampler for 12 h, freeze-thaw cycle for three times, and storage at −80 °C for 7 d.
The stability tests were carried out under three freeze-thaw cycles, at 25 °C for 4 h, in an autosampler for 12 h, and at −80 °C for 7 d.

## COc1ccc(-c2cc(=O)c3c(O)cc(O[C@@H]4O[C@H](CO[C@@H]5O[C@@H](C)[C@H](O)[C@@H](O)[C@H]5O)[C@@H](O)[C@H](O)[C@H]4O)cc3o2)cc1 [Linarin]
[1]; n = 6
  AUC (0–36): 12.04 ± 4.72 ng·h/mL
  AUC (0–∞): 12.04 ± 4.72 ng·h/mL
  Cmax: 12.78 ± 8.82 ng/mL
  MRT (0–36): 4.26 ± 2.67 h
  MRT (0–∞): 4.26 ± 2.68 h
  Tmax: 0.16 ± 0.10 h
  t1/2: 2.81 ± 0.21 h
[1]; n = 6, listed as linarin
  Tmax: ≤ 1 h
  t1/2: rapid elimination
[2]; QC concentration 1 ng/mL, autosampler 12 h, 4 °C, rat plasma, n = 3
  Stability in rat plasma, Autosampler (12 h, 4 °C), Measured: 1.1 ± 0.1 ng/mL
[2]; QC concentration 1 ng/mL, long term 7 day, –80 °C, rat plasma, n = 3
  Stability in rat plasma, Long term (7 day, –80 °C), Measured: 1.1 ± 0.1 ng/mL
[2]; QC concentration 1 ng/mL, room temperature 25 °C, rat plasma, n = 3
  Stability in rat plasma, Room temperature (4 h, 25 °C), Measured: 1.0 ± 0.1 ng/mL
[2]; QC concentration 1 ng/mL, three freeze/thaw cycles, rat plasma, n = 3
  Stability in rat plasma, Three freeze/thaw cycles, Measured: 1.0 ± 0.0 ng/mL
[2]; QC concentration 10 ng/mL, autosampler 12 h, 4 °C, rat plasma, n = 3
  Stability in rat plasma, Autosampler (12 h, 4 °C), Measured: 10.2 ± 0.6 ng/mL
[2]; QC concentration 10 ng/mL, long term 7 day, –80 °C, rat plasma, n = 3
  Stability in rat plasma, Long term (7 day, –80 °C), Measured: 10.2 ± 0.4 ng/mL
[2]; QC concentration 10 ng/mL, room temperature 25 °C, rat plasma, n = 3
  Stability in rat plasma, Room temperature (4 h, 25 °C), Measured: 11.9 ± 0.1 ng/mL
[2]; QC concentration 10 ng/mL, three freeze/thaw cycles, rat plasma, n = 3
  Stability in rat plasma, Three freeze/thaw cycles, Measured: 11.6 ± 0.5 ng/mL
[2]; QC concentration 200 ng/mL, autosampler 12 h, 4 °C, rat plasma, n = 3
  Stability in rat plasma, Autosampler (12 h, 4 °C), Measured: 208.5 ± 2.0 ng/mL
[2]; QC concentration 200 ng/mL, long term 7 day, –80 °C, rat plasma, n = 3
  Stability in rat plasma, Long term (7 day, –80 °C), Measured: 221.0 ± 11.2 ng/mL
[2]; QC concentration 200 ng/mL, room temperature 25 °C, rat plasma, n = 3
  Stability in rat plasma, Room temperature (4 h, 25 °C), Measured: 223.3 ± 5.0 ng/mL
[2]; QC concentration 200 ng/mL, three freeze/thaw cycles, rat plasma, n = 3
  Stability in rat plasma, Three freeze/thaw cycles, Measured: 219.4 ± 13.8 ng/mL

## C/C=C1/[C@H](O[C@@H]2O[C@H](CO)[C@@H](O)[C@H](O)[C@H]2O)OC=C(C(=O)OC)[C@H]1CC(=O)OCCc1ccc(O)c(O)c1 [Oleuropein]
[1]; male, Sprague-Dawley, rat, n = 6
  half-life: 202 min
[1]; male, Sprague-Dawley, rat, n = 6, read-out: AUC (0–36)
  AUC(0-t): 1.03 ± 0.75 ng·h/mL
[1]; male, Sprague-Dawley, rat, n = 6, read-out: Cmax
  Cmax: 0.9 ± 0.82 ng/mL
[1]; male, Sprague-Dawley, rat, n = 6, read-out: MRT (0–36)
  MRT last: 1.53 ± 1.25 h
[1]; male, Sprague-Dawley, rat, n = 6, read-out: MRT (0–∞)
  MRT inf: 1.54 ± 1.25 h
[1]; male, Sprague-Dawley, rat, read-out: areas under the concentration-time curve (AUC0–∞)
  AUC(0-inf): 1.03 ± 0.75 ng·h/mL
[1]; male, Sprague-Dawley, rat, po, 9.6 g/kg, n = 6, read-out: Tmax
  Tmax: 1.37 ± 1.6 h
[1]; n = 6
  t1/2: rapid elimination
[2]; rat, plasma, 0.5 ng/mL
  Stability in rat plasma, Three freeze/thaw cycles, Measured: 0.5 ± 0.1 ng/mL
  Stability in rat plasma, Room temperature (4 h, 25 °C), Measured: 0.5 ± 0.1 ng/mL
[2]; rat, plasma, 5 ng/mL
  Stability in rat plasma, Three freeze/thaw cycles, Measured: 5.1 ± 0.2 ng/mL
  Stability in rat plasma, Room temperature (4 h, 25 °C), Measured: 4.3 ± 0.5 ng/mL
[2]; rat, plasma, 100 ng/mL
  Stability in rat plasma, Three freeze/thaw cycles, Measured: 103.6 ± 9.3 ng/mL
  Stability in rat plasma, Room temperature (4 h, 25 °C), Measured: 108.6 ± 7.8 ng/mL
[2]; rat, plasma, 12 h, 0.5 ng/mL
  Stability in rat plasma, Autosampler (12 h, 4 °C), Measured: 0.4 ± 0.1 ng/mL
[2]; rat, plasma, 12 h, 5 ng/mL
  Stability in rat plasma, Autosampler (12 h, 4 °C), Measured: 0.5 ± 0.0 ng/mL
[2]; rat, plasma, 12 h, 100 ng/mL
  Stability in rat plasma, Autosampler (12 h, 4 °C), Measured: 93.4 ± 8.6 ng/mL
[2]; rat, plasma, 168 h, 0.5 ng/mL
  Stability in rat plasma, Long term (7 day, –80 °C), Measured: 1.0 ± 0.0 ng/mL
[2]; rat, plasma, 168 h, 5 ng/mL
  Stability in rat plasma, Long term (7 day, –80 °C), Measured: 4.9 ± 0.3 ng/mL
[2]; rat, plasma, 168 h, 100 ng/mL
  Stability in rat plasma, Long term (7 day, –80 °C), Measured: 113.9 ± 9.9 ng/mL

## Jaspolyside
[1]
  areas under the concentration-time curve (AUC0–∞): 53.4 ± 32.2 ng·h/mL
[1]; n = 6
  AUC (0–36): 46.59 ± 9.58 ng·h/mL
  AUC (0–∞): 53.37 ± 32.17 ng·h/mL
  Cmax: 14.25 ± 3.67 ng/mL
  MRT (0–36): 11.42 ± 1.29 h
  MRT (0–∞): 15.62 ± 10.83 h
  Tmax: 0.38 ± 0.31 h
  t1/2: 29.15 ± 12.65 h
[1]; n = 6, listed as jaspolyside
  Tmax: ≤ 1 h
